Test system: pErk2 (Phospho-p44/42 MAP kinase (Thr202/Tyr204))
Experiment: Detection of pErk2 (phospho-p44/42 MAP kinase) in immobilized Jurkat cell lysates (antibody A3)
Type: cell-based, human
Conditions: Jurkat cells treated with 10 μM for 180 min
Protocol: Human T-cell cultures (Jurkat, DMZ # ACC282) are utilized for the detection of biologically relevant protein analytes in “immobilization samples”. These cells are cultivated at 37° C. in a solution containing RPMI 1640, 10% FCS (fetal calf serum), 2 mM glutamine, 50 U/ml penicillin, 50 μg/ml streptamycine (cell density at about 0.5×10^6-1.0×10^6 cells/ml). […] A cell culture, which is similar to the one described above but not treated with antibodies, is used as a comparison sample and shall serve as a negative control in the analytical detection method. […] The cells here are simply separated from the medium, without damage to the cells. The supernatant is then decanted, and lysis buffer (7 M urea, 2 M thiourea, 4% CHAPS, 1% DTT, 4 mM spermidine and Complete (protease inhibitor, Roche AG, 1 tablet/50 ml) is added, the total protein concentration being adjusted to about 10 mg/ml. Thereby, all protein-containing cell components are denatured spontaneously and completely and solubilized. The samples obtained by the preparation steps described above are again diluted by a factor of 10 to a total protein concentration of about 1 mg/ml, and are then deposited in discrete measurement areas for generating an array of measurement areas on the evanescent field sensor platform provided with the adhesion-promoting layer. […]

CN[C@@H]1C[C@H]2O[C@@](C)([C@@H]1OC)n1c3ccccc3c3c4c(c5c6ccccc6n2c5c31)C(=O)NC4 [staurosporin, staurosporine]
pErk2 signal of the nonstimulated control sample compared with the treated sample: only slightly higher
